Key:
[1] = target: T1, full-length human PDE4D5 (long isoform) (Homo sapiens, UniProt Q08499); test: PDE assay ([3H]cAMP hydrolysis) with PDE4D5 cell lysate cytosol fraction; type: biochemical; details: 100 μM test compound; mean % increase in counts over basal activity
T1 construct: cell lines that stably expressed the full-length human PDE4 long isoforms and the full length human PDE4B2 short isoform; made in house; cytosol fraction of the cell lysate, not purified
Procedure: (§1) HEK 293 and MDCK cells (Public Health England, Cell Culture Collections) were maintained in Dulbecco's Modified Eagle's Medium (DMEM) supplemented with 10% (v/v) fetal bovine serum (FBS) (Seralab), 2 mM L-glutamine and 100 U/mL penicillin streptomycin cocktail (ThermoFisher); termed complete media. Clonal HEK 293 cell lines were maintained in complete media supplemented with 0.6 mg/ml G418 (Enzo Life Sciences). Mouse inner medullary collecting duct (m-IMCD3) cells [American Type Culture Collection (ATCC)] were maintained in media consisting of DMEM/Hams F-12 50/50 Mix (DMEM F12; Corning) supplemented with penicillin streptomycin cocktail (100 U/mL) and FBS (10% v/v) (DMEM F12-10% FBS).
(§2) Experiment 1: Measurement of Modulation of Enzyme Activity by PDE4 Long Form Activators of the Present Invention Using Full-Length Human PDE4 Isoforms; Long Forms PDE4D5, PDE4C3, PDE4B1 and Short Form PDE4B2
(§3) (Marchmont, R. J. and Houslay, M. D. Biochem. J. 187:381-92, 1980)
(§4) Exogenous expression of long form PDE4 enzymes and stable cell line generation For transient transfection of exogenous PDE4 long isoforms, HEK 293 cells were transfected with pcDNA3.1 or pDEST™ PDE4 expression vectors using Lipofectamine LTX/Plus reagent (Invitrogen) as outlined by the manufacturer.
(§5) Where stable cell lines were generated the clonal isolates were expanded to obtain cell lines that stably expressed the full-length human PDE4 long isoforms and the full length human PDE4B2 short isoform. These were called the HEK-PDE4D5, HEK-PDE4B1 and HEK-PDE4B2 cell lines, respectively.
(§6) Lysate Preparation (Using PDE4D5 as a Typical Example)
(§7) HEK-PDE4D5 cells were seeded out in 100 mm plates and incubated at 37° C. in an atmosphere of 5% CO2, 95% air. Cell lysates were prepared using KHEM buffer [50 mM KCl, 10 mM EGTA, 50 mM HEPES (pH 7.2), 1.92 mM MgCl2].
(§8) To prepare the cell lysates, the 100 mm plates containing the cells were placed on ice and washed with ice-cold PBS (phosphate buffered saline, pH 7.4). KHEM buffer (500 μL) was added to the cells. Cells were then scraped off the plate and triturated using a needle (BD Microlance™ 0.8, 40 mm). The lysed cells were then centrifuged at 2000 rpm for 10 minutes to remove cell debris and the supernatant (cell lysate containing recombinant PDE4D5) was transferred to a fresh tube and kept on ice.
(§9) Cytosol Fraction Preparation (Using PDE4D5 as a Typical Example)
(§10) The cell lysate containing recombinant PDE4D5 was transferred into a centrifuge tube and placed into an ultracentrifuge (BECKMAN COULTER) and spun at high speed (100,000g) for 30 minutes at 4° C. The cytosol fraction was then collected and its protein amount determined using a BCA protein assay.
(§11) PDE Assay—(Using PDE4D5 as a Typical Example)
(§12) PDE assays were performed in thin-walled V-bottomed 96-well plates. […]

[2] = target: T2, full-length human PDE4B2 (short isoform) (Homo sapiens, UniProt Q07343); test: PDE assay ([3H]cAMP hydrolysis) with PDE4B2 cell lysate cytosol fraction; type: biochemical; details: 100 μM test compound; mean % increase in counts over basal activity
T2 construct: the full length human PDE4B2 short isoform; made in house; cytosol fraction of the cell lysate, not purified
T2 sequence (Q07343 1-564 isoform Q07343-2): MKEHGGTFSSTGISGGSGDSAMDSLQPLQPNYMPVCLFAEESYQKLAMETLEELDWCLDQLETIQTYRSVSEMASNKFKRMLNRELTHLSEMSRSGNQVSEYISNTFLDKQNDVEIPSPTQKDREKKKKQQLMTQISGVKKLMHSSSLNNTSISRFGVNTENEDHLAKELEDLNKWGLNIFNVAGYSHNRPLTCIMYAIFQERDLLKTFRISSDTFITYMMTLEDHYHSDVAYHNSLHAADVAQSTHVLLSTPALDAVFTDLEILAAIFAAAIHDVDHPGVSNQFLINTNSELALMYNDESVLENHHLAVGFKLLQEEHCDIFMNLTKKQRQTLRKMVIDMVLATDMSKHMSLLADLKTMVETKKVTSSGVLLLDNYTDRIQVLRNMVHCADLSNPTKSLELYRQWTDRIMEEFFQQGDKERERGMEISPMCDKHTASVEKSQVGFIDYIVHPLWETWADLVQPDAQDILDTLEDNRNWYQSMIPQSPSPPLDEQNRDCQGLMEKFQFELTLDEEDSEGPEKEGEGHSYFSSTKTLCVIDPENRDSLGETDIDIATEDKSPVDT
Procedure: as §1, §2, §3, §4, §5, §6, §7, §8, §9, §10, §11, §12

m-IMCD3 cells = test: Inhibition of PGE2-stimulated in vitro cyst formation in m-IMCD3 cells (3D culture); type: cell-based; details: Mus musculus, mIMCD3, 144 h, mean cyst area, 100% for (DMSO + PGE2) and 0% for DMSO control, 6 days of culture; for activity at 3 µM: read-out: % Cyst area* after incubation with 3 μM test compound; for activity at 10 µM: read-out: % Cyst area* after incubation with 10 μM test compound
Method in brief: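 m-IMCD3 cells in a 3D collagen I/Matrigel matrix at 37 °C, 5% CO2 were dosed 18–24 h after plating with compound (0.1% DMSO) plus 100 nM PGE2, in quadruplicate, replenished after 2–3 days. On day 6, z-stack imaging measured mean cyst area, normalised to DMSO+PGE2 (100%) and DMSO alone (0%).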

[3] = test system: m-IMCD3 cells expressing PDE4 long forms; test: cAMP levels in assay media of PGE2-stimulated m-IMCD3 3D cell culture; type: cell-based; details: Mus musculus, mIMCD3; 3 μM test compound; compared to 100% for (DMSO + PGE2); read-out: cAMP level (% of PGE2-stimulated)
Procedure: as §1
Experiment 2: Reduction of CAMP Levels in m-IMCD3 Cell Culture Treated with PDE4 Long Form Activators
Activation of intracellular PDE4 long forms leads to a reduction of both intracellular CAMP and externalised cAMP (Omar et al., PNAS 116:13320-13329, 2019). This reduction may be measured in the cell culture media supernatant of 3D cystic cell cultures, such as in the m-IMCD3 cell cyst suppression assay described in Experiment 3.
Following the completion of the m-IMCD3 cell cyst suppression assay (Experiment 3), the CAMP levels in the assay media from individual or pooled assay wells was measured using a CAMP ELISA kit (Enzo Life Sciences) or a LANCE Ultra CAMP kit (PerkinElmer) according to the manufacturer's instructions.
Treatment with PDE4 long form activators reduced CAMP levels in PGE2-stimulated m-IMCD3 cell culture.

T1 sequence (Q08499 1-745 isoform Q08499-6): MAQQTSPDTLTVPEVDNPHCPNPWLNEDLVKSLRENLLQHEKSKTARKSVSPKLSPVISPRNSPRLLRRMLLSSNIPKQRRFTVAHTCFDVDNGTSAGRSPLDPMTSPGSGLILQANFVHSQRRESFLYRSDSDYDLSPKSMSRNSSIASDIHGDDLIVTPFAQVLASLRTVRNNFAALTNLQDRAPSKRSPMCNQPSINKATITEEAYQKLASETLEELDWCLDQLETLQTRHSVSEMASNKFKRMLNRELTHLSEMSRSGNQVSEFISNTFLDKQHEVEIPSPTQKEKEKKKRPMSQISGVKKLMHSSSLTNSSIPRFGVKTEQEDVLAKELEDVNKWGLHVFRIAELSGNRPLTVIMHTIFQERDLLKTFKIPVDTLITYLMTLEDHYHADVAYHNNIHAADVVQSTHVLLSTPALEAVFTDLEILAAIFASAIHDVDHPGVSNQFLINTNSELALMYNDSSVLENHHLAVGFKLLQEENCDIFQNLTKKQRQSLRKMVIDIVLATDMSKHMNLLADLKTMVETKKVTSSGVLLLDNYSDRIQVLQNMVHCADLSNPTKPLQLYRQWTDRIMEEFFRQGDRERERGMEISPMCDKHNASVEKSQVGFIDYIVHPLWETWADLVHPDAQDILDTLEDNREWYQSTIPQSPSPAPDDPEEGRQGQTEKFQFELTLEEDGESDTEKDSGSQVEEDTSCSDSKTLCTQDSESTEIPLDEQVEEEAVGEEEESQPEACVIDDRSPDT

SMILES | % increase in PDE4D5 (long isoform) activity at 100 μM* (%) [1] [%] | % increase in PDE4B2 (short isoform) activity at 100 μM* [2] [%] | activity at 3 µM (m-IMCD3 cells) [%] | activity at 3 µM [3] [%] | activity at 10 µM (m-IMCD3 cells) [%]
CCN1CC2CCC(C1)N2c1ccc2c(n1)CCN(S(=O)(=O)Cc1ccc(F)cc1)C2 [Example 159, 2-(3-ethyl-3,8-diazabicyclo[3.2.1]octan-8-yl)-6-((4-fluorobenzyl)sulfonyl)-5,6,7,8-tetrahydro-1,6-naphthyridine] | 35 | 2 | 1 | – | –
O=C(Cc1ccc(F)cc1)N1CCc2nc(N3C4CCC3CNC4)ccc2C1 [Example 48, 1-(2-(3,8-diazabicyclo[3.2.1]octan-8-yl)-7,8-dihydro-1,6-naphthyridin-6(5H)-yl)-2-(4-fluorophenyl)ethan-1-one] | 31 | −9 | – | 57 | -5
O=C(Cc1ccc(F)cc1)N1CCc2nc(N3C4CCC3CNC4)ncc2C1 [Example 139, 1-(2-(3,8-diazabicyclo[3.2.1]octan-8-yl)-7,8-dihydropyrido[4,3-d]pyrimidin-6(5H)-yl)-2-(4-fluorophenyl)ethan-1-one] | 28 | −1 | 1 | – | –
O=C(COc1ccc(F)cc1)N1CCc2nc(N3C4CCC3CNC4)ccc2C1 [Example 46, 1-(2-(3,8-diazabicyclo[3.2.1]octan-8-yl)-7,8-dihydro-1,6-naphthyridin-6(5H)-yl)-2-(4-fluorophenoxy)ethan-1-one] | 94 | 6 | – | 42 | –
O=C(CC1CCCC1)N1CCc2nc(C3CCNCC3)ccc2C1 [Example 114, 2-cyclopentyl-1-(2-(piperidin-4-yl)-7,8-dihydro-1,6-naphthyridin-6(5H)-yl)ethan-1-one] | – | – | – | 47 | -2
N#Cc1ccc(CC(=O)N2CCc3nc(N4C5CCC4CNC5)ncc3C2)cc1 [Example 136, 4-(2-(2-(3,8-diazabicyclo[3.2.1]octan-8-yl)-7,8-dihydropyrido[4,3-d]pyrimidin-6(5H)-yl)-2-oxoethyl)benzonitrile] | – | – | 1 | 38 | –
CN1CC2CCC(C1)N2c1ccc2c(n1)CN(C(=O)NC1CCC(F)(F)CC1)C2 [Example 91, N-(4,4-difluorocyclohexyl)-2-(3-methyl-3,8-diazabicyclo[3.2.1]octan-8-yl)-5,7-dihydro-6H-pyrrolo[3,4-b]pyridine-6-carboxamide] | – | – | – | 31 | -5
CCN1CC2CCC(C1)N2c1ccc2c(n1)CCN(S(=O)(=O)Cc1ccccc1)C2 [Example 163, 6-(benzylsulfonyl)-2-(3-ethyl-3,8-diazabicyclo[3.2.1]octan-8-yl)-5,6,7,8-tetrahydro-1,6-naphthyridine] | – | – | -1 | 39 | –
COc1ccccc1C(=O)N1CCc2nc(N3C4CCC3CNC4)ccc2C1 [Example 121, (2-(3,8-diazabicyclo[3.2.1]octan-8-yl)-7,8-dihydro-1,6-naphthyridin-6(5H)-yl)(2-methoxyphenyl)methanone] | – | – | 8 | 44 | –
